Source: publication PMC9433317, “Discovery, structure and mechanism of a tetraether lipid synthase” (Nature, 2022)

Assays:
[1] = biological target: T1, GDGT–MAS (MJ0619; Tes) (Methanocaldococcus jannaschii, UniProt Q58036); experiment: X-ray crystal structure, […] Å; assay type: binding; details: lipid-exchanged from M. acetivorans extract; with 5'-dAH and methionine; lipid identity assigned from electron density; second lipid site
T1 sequence (Q58036 1-506): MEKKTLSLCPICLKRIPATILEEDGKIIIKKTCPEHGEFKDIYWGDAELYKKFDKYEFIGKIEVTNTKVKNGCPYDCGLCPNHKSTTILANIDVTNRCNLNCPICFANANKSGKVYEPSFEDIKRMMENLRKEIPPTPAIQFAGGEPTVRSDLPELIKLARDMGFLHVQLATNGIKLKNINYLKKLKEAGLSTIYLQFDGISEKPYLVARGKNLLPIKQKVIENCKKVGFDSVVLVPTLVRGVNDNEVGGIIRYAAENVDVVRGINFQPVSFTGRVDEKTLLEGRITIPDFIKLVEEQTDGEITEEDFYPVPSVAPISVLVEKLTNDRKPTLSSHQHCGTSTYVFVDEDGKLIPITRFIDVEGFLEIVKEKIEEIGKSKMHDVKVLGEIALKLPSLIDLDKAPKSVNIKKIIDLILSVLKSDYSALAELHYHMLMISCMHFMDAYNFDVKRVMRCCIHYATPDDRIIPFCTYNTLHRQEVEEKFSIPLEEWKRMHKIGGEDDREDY

[2] = biological target: T1, GDGT–MAS (MJ0619; Tes); experiment: X-ray crystal structures, […] Å and […] Å; assay type: binding; details: with 5'-dAH and bound lipids; bidentate to the unique iron of the radical SAM [Fe4S4] cluster

Compound | X-ray crystal structure, 2.05 Å [1] | X-ray crystal structures, 1.85 Å and 2.05 Å [2]
CC(C)CCC[C@@H](C)CCC[C@@H](C)CCC[C@@H](C)CCOC[C@@H](COP(=O)(O)O)OCC[C@H](C)CCC[C@H](C)CCC[C@H](C)CCCC(C)C [L1P, 2,3-di-O-phytanyl-sn-glycero-1-phosphate] | Unmodelled electron density in the active site was assigned as two archaeal lipid molecules | –
CSCC[C@H](N)C(=O)O [Met, methionine] | – | methionine coordinates to the unique iron in a bidentate manner
